Experiments:
NK-1 receptor = target: T1, NK-1 receptor (Homo sapiens, UniProt P25103); test: NK-1 Receptor Binding Assay (125I-labeled substance P, IM9 cells); settings: inhibits fifty percent of binding of 125I-substance P to IM9 cells
T1 construct: endogenous in cells; host or cells: IM9 cells (human cell line), whole cells
Protocol: (§1) The biological activity of the compounds of the present invention was evaluated employing an initial screening assay which rapidly and accurately measured the binding of the tested compound to known NK-1 and NK-2 receptor sites. Assays useful for evaluating tachykinin receptor antagonists are well known in the art.
NK-1 Receptor Binding Assay
Radioreceptor binding assays were performed using a derivative of a previously published protocol.
The IM9 cell line is a well-characterized and readily available human cell line.
The reaction was terminated by filtration through a glass fiber filter harvesting system using filters previously soaked for 20 minutes in 0.1% polyethylenimine. Specific binding of labeled substance P was determined in the presence of 20 nM unlabeled ligand.

human NK-2 receptor = target: T2, human NK-2 receptor (Homo sapiens, UniProt P21452); test: NK-2 Receptor Binding Assay ([125I]iodohistidyl-neurokinin A, CHO-hNK-2R membranes); settings: inhibits fifty percent of binding of [125I]iodohistidyl-neurokinin A to CHO-hNK-2R membranes
T2 construct: expressed in transfected cells; host or cells: CHO-hNK-2R cells (CHO-derived), membrane preparation
T2 sequence (P21452 1-398): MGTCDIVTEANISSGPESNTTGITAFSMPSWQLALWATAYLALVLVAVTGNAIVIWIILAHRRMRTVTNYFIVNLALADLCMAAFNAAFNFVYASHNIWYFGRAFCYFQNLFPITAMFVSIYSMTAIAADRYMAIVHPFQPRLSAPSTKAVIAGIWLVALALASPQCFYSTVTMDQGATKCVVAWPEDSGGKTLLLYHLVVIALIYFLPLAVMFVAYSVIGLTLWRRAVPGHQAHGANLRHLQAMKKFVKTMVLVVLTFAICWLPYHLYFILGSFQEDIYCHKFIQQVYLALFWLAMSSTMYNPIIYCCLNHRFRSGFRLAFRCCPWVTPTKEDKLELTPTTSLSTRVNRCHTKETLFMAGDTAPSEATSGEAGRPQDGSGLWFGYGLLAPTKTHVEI
Protocol: as §1, with “art. See. e.g., J. Jukic, et al., Life Sciences, 49:1463-1469 (1991); N. Kucharczyk, et al., Journal of Medicinal Chemistry, 36:1654-1661 (1993); N. Rouissi, et al., Biochemical and Biophysical Research Communications, 176:894-901 (1991).” for “art.”
NK-2 Receptor Binding Assay
The CHO-hNK-2R cells, a CHO-derived cell line transformed with the human NK-2 receptor, expressing about 400,000 such receptors per cell, were grown in 75 cm^2 flasks or roller bottles in minimal essential medium (alpha modification) with 10% fetal bovine serum. The gene sequence of the human NK-2 receptor is given in N. P. Gerard, et al., Journal of Biological Chemistry, 265:20455-20462 (1990).
For preparation of membranes, 30 confluent roller bottle cultures were dissociated by washing each roller bottle with 10 ml of Dulbecco's phosphate buffered saline (PBS) without calcium and magnesium, followed by addition of 10 ml of enzyme-free cell dissociation solution (PBS-based, from Specialty Media, Inc.). After an additional 15 minutes, the dissociated cells were pooled and centrifuged at 1,000 RPM for 10 minutes in a clinical centrifuge. Membranes were prepared by homogenization of the cell pellets in 300 ml 50 mM Tris buffer, pH 7.4 with a Tekma® homogenizer for 10-15 seconds, followed by centrifugation at 12,000 RPM (20,000×g) for 30 minutes using a Beckman JA-14® rotor. The pellets were washed once using the above procedure. and the final pellets were resuspended in 100-120 ml 50 mM Tris buffer, pH 7.4, and 4 ml aliquots stored frozen at −70° C. The protein concentration of this preparation was 2 mg/ml.
For the receptor binding assay, one 4-ml aliquot of the CHO-hNK-2R membrane preparation was suspended in 40 ml of assay buffer containing 50 mM Tris, pH 7.4, 3 mM manganese chloride, 0.02% bovine serum albumin (BSA) and 4 μg/ml chymostatin. A 200 μl volume of the homogenate (40 μg protein) was used per sample. The radioactive ligand was [^125I]iodohistidyl-neurokinin A (New England Nuclear, NEX-252), 2200 Ci/mmol. The ligand was prepared in assay buffer at 20 nCi per 100 μl; the final concentration in the assay was 20 pM. Non-specific binding was determined using 1 μM eledoisin. Ten concentrations of eledoisin from 0.1 to 1000 nM were used for a standard concentration-response curve.
All samples and standards were added to the incubation in 10 μl dimethylsulfoxide (DMSO) for screening (single dose) or in 5 μl DMSO for IC50 determinations. The order of additions for incubation was 190 or 195 μl assay buffer, 200 μl homogenate, 10 or 5 μl sample in DMSO, 100 μl radioactive ligand. The samples were incubated 1 hr at room temperature and then filtered on a 48 well Brandel cell harvester through GF/B filters which had been presoaked for two hours in 50 mM Tris buffer, pH 7.7, containing 0.5% BSA. The filter was washed 3 times with approximately 3 ml of cold 50 mm Tris buffer, pH 7.7. The filter circles were then punched into 12×75 mm polystyrene tubes and counted in a gamma counter.

T1 sequence (P25103 whole entry): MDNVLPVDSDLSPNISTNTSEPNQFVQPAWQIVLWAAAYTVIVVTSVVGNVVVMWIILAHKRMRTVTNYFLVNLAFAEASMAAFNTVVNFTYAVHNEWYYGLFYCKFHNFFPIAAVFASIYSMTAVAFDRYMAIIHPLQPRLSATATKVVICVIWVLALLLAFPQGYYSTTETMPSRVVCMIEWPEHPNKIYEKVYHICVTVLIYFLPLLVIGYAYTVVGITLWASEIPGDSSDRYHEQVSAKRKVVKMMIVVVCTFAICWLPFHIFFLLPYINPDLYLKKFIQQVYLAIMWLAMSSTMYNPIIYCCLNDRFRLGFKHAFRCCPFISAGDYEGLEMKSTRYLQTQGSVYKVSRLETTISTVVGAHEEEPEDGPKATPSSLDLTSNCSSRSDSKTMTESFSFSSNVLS

Row | SMILES | IC50 (NK-1 receptor) [nM] | IC50 (human NK-2 receptor) [nM]
1 | CC(=O)N(CCc1ccccc1)CC(Cc1c[nH]c2ccccc12)NC(=O)CN1CCC(N2CCCCC2)CC1 (centres unmarked) [Example 54] | 30.1 | 2100
2 | COc1ccccc1CN(CC(Cc1c[nH]c2ccccc12)NC(=O)CNCCNc1ccccc1)C(C)=O (centres unmarked) [Example 58] | 14 | 340
3 | COc1ccccc1CN(CC(Cc1c[nH]c2ccccc12)NC(=O)CN1CCCC1)C(C)=O (centres unmarked) [Example 59] | 7.3 | 3700
4 | COc1ccccc1CN(CC(Cc1c[nH]c2ccccc12)NC(=O)CN1CCCCC1)C(C)=O (centres unmarked) [Example 60] | 24 | 3900
5 | COc1ccccc1CN(CC(Cc1c[nH]c2ccccc12)NC(=O)CN1CCCCCC1)C(C)=O (centres unmarked) [Example 61] | 7.2 | 940
6 | COc1ccccc1CN(CC(Cc1c[nH]c2ccccc12)NC(=O)CN1CCOCC1)C(C)=O (centres unmarked) [Example 62] | 43 | 5900
7 | COc1ccccc1CN(CC(Cc1c[nH]c2ccccc12)NC(=O)CN1CCc2ccccc21)C(C)=O (centres unmarked) [Example 63] | 74 | 490
8 | COc1ccccc1CN(CC(Cc1c[nH]c2ccccc12)NC(=O)CN1CCC(c2ccccc2)CC1)C(C)=O (centres unmarked) [Example 65] | 7.2 | 600
9 | COc1ccccc1CN(CC(Cc1c[nH]c2ccccc12)NC(=O)CN1CCC(N(C)C)CC1)C(C)=O (centres unmarked) [Example 66] | 4.6 | 7200
10 | COc1ccccc1CN(CC(Cc1c[nH]c2ccccc12)NC(=O)CN1CC=C(c2ccccc2)CC1)C(C)=O (centres unmarked) [Example 67] | 3.8 | 750
11 | COc1ccccc1CN(CC(Cc1c[nH]c2ccccc12)NC(=O)CN1CCC(NC(C)=O)(c2ccccc2)CC1)C(C)=O (centres unmarked) [Example 68] | 0.41 | 2400
12 | COc1ccccc1CN(CC(Cc1c[nH]c2ccccc12)NC(=O)CN1CCN(c2ccc(Cl)cc2)CC1)C(C)=O (centres unmarked) [Example 69] | 5.4 | 830
13 | COc1ccccc1CN(CC(Cc1c[nH]c2ccccc12)NC(=O)CN1CCN(c2cccc(C(F)(F)F)c2)CC1)C(C)=O (centres unmarked) [Example 70] | 13 | 1000
14 | COc1ccccc1CN(CC(Cc1c[nH]c2ccccc12)NC(=O)CN1CCN(C)CC1)C(C)=O (centres unmarked) [Example 71] | 7.5 | 8900
15 | COc1ccccc1CN(CC(Cc1c[nH]c2ccccc12)NC(=O)CN1CCN(C2CCCCC2)CC1)C(C)=O (centres unmarked) [Example 74] | 0.36 | 1000
16 | COc1ccccc1CN(C[C@@H](Cc1c[nH]c2ccccc12)NC(=O)CN1CCN(C2CCCCC2)CC1)C(C)=O [Example 75, (R)-1-[N-(2-methoxybenzyl)acetylamino]-3-(1H-indol-3-yl)-2-[N-(2-((4-cyclohexyl)piperazin-1-yl)acetyl)amino]propane] | 0.18 | 850
17 | COc1ccccc1CN(C[C@H](Cc1c[nH]c2ccccc12)NC(=O)CN1CCN(C2CCCCC2)CC1)C(C)=O [Example 76] | 69 | 1400
18 | COc1ccccc1CN(CC(Cc1c[nH]c2ccccc12)NC(=O)CN1CCN(Cc2ccccc2)CC1)C(C)=O (centres unmarked) [Example 77] | 0.88 | 630
19 | COc1ccccc1CN(CC(Cc1c[nH]c2ccccc12)NC(=O)CN1CCN(c2ncccn2)CC1)C(C)=O (centres unmarked) [Example 78] | 10 | 2100

From patent publication US6869957B1, “Non-peptide tachykinin receptor antagonists” (Eli Lilly and Company, priority 1993, dated 2005)
